Source: the NIST ThermoML archive (doi:10.1016/j.jct.2007.07.002)

Details: Gas, double Helmholtz acoustic resonator

O=C=O [carbon dioxide]
Details	kinematic viscosity [m2/s]	speed of sound [m/s]
220 K, 195.46 kPa	2.37e-06	231.7
220 K, 226.71 kPa	2e-06	231.05
220 K, 254.44 kPa	1.79e-06	230.53
220 K, 288.21 kPa	1.56e-06	229.81
220 K, 324.47 kPa	1.37e-06	229.07
220 K, 362.71 kPa	1.22e-06	228.29
220 K, 393.15 kPa	1.12e-06	227.64
220 K, 425.51 kPa	1.03e-06	226.95
220 K, 449.74 kPa	9.7e-07	226.42
220 K, 479.78 kPa	9.02e-07	225.76
235 K, 224.78 kPa	2.31e-06	238.87
235 K, 359.42 kPa	1.42e-06	236.69
235 K, 452.88 kPa	1.11e-06	235.12
235 K, 545.18 kPa	9.13e-07	233.52
235 K, 638.46 kPa	7.66e-07	231.87
235 K, 723.88 kPa	6.71e-07	230.31
235 K, 803.31 kPa	5.95e-07	228.81
250 K, 274.2 kPa	2.15e-06	245.57
250 K, 372.33 kPa	1.57e-06	244.25
250 K, 491.25 kPa	1.17e-06	242.62
250 K, 595.84 kPa	9.53e-07	241.15
250 K, 702.28 kPa	7.98e-07	239.62
250 K, 818.89 kPa	6.75e-07	237.9
250 K, 953.03 kPa	5.71e-07	235.87
250 K, 1060.2 kPa	5.07e-07	234.18
250 K, 1177.6 kPa	4.5e-07	232.28
250 K, 1291.6 kPa	4.03e-07	230.37
250 K, 1438.2 kPa	3.54e-07	227.81
270 K, 196.61 kPa	3.5e-06	255.77
270 K, 354.95 kPa	1.95e-06	254.13
270 K, 526.01 kPa	1.29e-06	252.3
270 K, 705.02 kPa	9.47e-07	250.33
270 K, 898.25 kPa	7.28e-07	248.16
270 K, 1076.5 kPa	5.99e-07	246.1
270 K, 1287.1 kPa	4.91e-07	243.58
270 K, 1446.7 kPa	4.31e-07	241.62
270 K, 1630 kPa	3.76e-07	239.29
270 K, 1846 kPa	3.26e-07	236.43
270 K, 2079.6 kPa	2.84e-07	233.19
270 K, 2316.1 kPa	2.49e-07	229.71
270 K, 2509.6 kPa	2.26e-07	226.69
285 K, 371.48 kPa	2.07e-06	260.81
285 K, 575.25 kPa	1.31e-06	258.96
285 K, 787.74 kPa	9.44e-07	257
285 K, 1013 kPa	7.22e-07	254.87
285 K, 1228.5 kPa	5.87e-07	252.79
285 K, 1500.4 kPa	4.72e-07	250.09
285 K, 1707.2 kPa	4.09e-07	247.98
285 K, 1947.2 kPa	3.52e-07	245.46
285 K, 2221.2 kPa	3.03e-07	242.48
285 K, 2559.7 kPa	2.58e-07	238.62
285 K, 2841.9 kPa	2.27e-07	235.23
285 K, 3057.8 kPa	2.06e-07	232.51
300 K, 313.43 kPa	2.72e-06	267.83
300 K, 531.89 kPa	1.58e-06	266.16
300 K, 748.54 kPa	1.11e-06	264.48
300 K, 993.26 kPa	8.26e-07	262.55
300 K, 1237 kPa	6.54e-07	260.6
300 K, 1526.1 kPa	5.22e-07	258.23
300 K, 1747.8 kPa	4.5e-07	256.38
300 K, 1991.5 kPa	3.9e-07	254.3
300 K, 2272.2 kPa	3.37e-07	251.86
300 K, 2577.9 kPa	2.92e-07	249.12
300 K, 2893.9 kPa	2.57e-07	246.21
300 K, 3145.8 kPa	2.33e-07	243.81
304.77 K, 317.81 kPa	2.78e-06	269.84
304.77 K, 527.05 kPa	1.65e-06	268.3
304.77 K, 745.25 kPa	1.15e-06	266.69
304.77 K, 979.77 kPa	8.66e-07	264.94
304.77 K, 1201.7 kPa	6.98e-07	263.26
304.77 K, 1478.9 kPa	5.59e-07	261.12
304.77 K, 1699.4 kPa	4.82e-07	259.4
304.77 K, 1950 kPa	4.14e-07	257.4
304.77 K, 2235.2 kPa	3.57e-07	255.09
304.77 K, 2552.7 kPa	3.07e-07	252.45
304.77 K, 2881 kPa	2.69e-07	249.66
304.77 K, 3135.9 kPa	2.44e-07	247.43
310 K, 342.08 kPa	2.66e-06	271.86
310 K, 552.05 kPa	1.63e-06	270.4
310 K, 773.76 kPa	1.15e-06	268.86
310 K, 1018 kPa	8.63e-07	267.13
310 K, 1259.3 kPa	6.9e-07	265.4
310 K, 1549 kPa	5.53e-07	263.3
310 K, 1786.6 kPa	4.75e-07	261.55
310 K, 2055.6 kPa	4.08e-07	259.54
310 K, 2363 kPa	3.49e-07	257.19
310 K, 2708.8 kPa	3e-07	254.5
310 K, 3078 kPa	2.6e-07	251.56
330 K, 201.27 kPa	5.17e-06	280.89
330 K, 402.42 kPa	2.55e-06	279.73
330 K, 626.86 kPa	1.62e-06	278.46
330 K, 846.53 kPa	1.19e-06	277.21
330 K, 1059.3 kPa	9.44e-07	276
330 K, 1333 kPa	7.43e-07	274.43
330 K, 1559.3 kPa	6.3e-07	273.12
330 K, 1813.1 kPa	5.37e-07	271.64
330 K, 2103.2 kPa	4.59e-07	269.94
330 K, 2423.4 kPa	3.94e-07	268.06
330 K, 2778.7 kPa	3.4e-07	265.94
330 K, 3067.6 kPa	3.06e-07	264.21
350 K, 234.16 kPa	4.97e-06	288.49
350 K, 440.84 kPa	2.61e-06	287.51
350 K, 660.1 kPa	1.73e-06	286.5
350 K, 905.02 kPa	1.25e-06	285.36
350 K, 1143.5 kPa	9.86e-07	284.25
350 K, 1347.8 kPa	8.31e-07	283.31
350 K, 1584.4 kPa	7.03e-07	282.2
350 K, 1873 kPa	5.9e-07	280.86
350 K, 2228.5 kPa	4.92e-07	279.21
350 K, 2447.3 kPa	4.45e-07	278.19
350 K, 2827.2 kPa	3.82e-07	276.43
350 K, 3133.8 kPa	3.42e-07	275.01
370 K, 335.49 kPa	3.82e-06	295.63
370 K, 537.7 kPa	2.37e-06	294.86
370 K, 749.31 kPa	1.7e-06	294.05
370 K, 964.83 kPa	1.31e-06	293.24
370 K, 1228.5 kPa	1.03e-06	292.24
370 K, 1449.3 kPa	8.66e-07	291.41
370 K, 1714.1 kPa	7.29e-07	290.42
370 K, 2019 kPa	6.15e-07	289.27
370 K, 2382.7 kPa	5.18e-07	287.93
370 K, 2771.7 kPa	4.42e-07	286.5
370 K, 3095.9 kPa	3.93e-07	285.31
